{"source": "patent US6759403B2", "about": "“Metalloporphyrins and their uses as radiosensitizers for radiation therapy” (Brookhaven Science Associates, LLC, priority 2001, dated 2004)", "key": {"[1]": {"test": "Toxicity observation during and after porphyrin administration and at necropsy (Examples 2 and 3)", "type": "in vivo", "settings": "Examples 2 and 3 (186 or 156 μg CuTCPBr/g)", "text": "Toxicity is the critical factor, and since no toxicity was observed, the dose can be increased to achieve tumor boron concentrations higher than those in Examples 2 and 3."}, "EMT-6 leg tumors": {"system": "EMT-6 leg tumors", "test": "Boron biodistribution in mice with subcutaneous EMT-6 leg tumors (Example 3)", "type": "in vivo, BALB/c mice", "settings": "for Boron Concentration, Blood / Boron Concentration, Liver / Boron concentration, Cerebrum / Boron concentration, Ears / Boron Concentration, Tumor: 156 μg CuTCPBr/gbw over 2 days; for Boron Concentration, Tumor / Tumor boron concentration normalized to the dose of the first study: leg tumor; for Tumor boron concentration normalized to the dose of the first study: normalized from 156 to 186 μg/g dose", "description": "In this example, BALB/c mice bearing subcutaneous EMT-6 leg tumors were given 156 μg CuTCPBr/gbw in a volume of 0.01 mL/gbw/injection over a period of 2 days.\nThere is a larger vascular system surrounding the dorsal thorax compared with the leg, which may be a factor. However, in the case of CuTCPH, the boron concentration was 30% higher in leg tumors compared to back tumors. Normalizing to the slightly higher dose of the first study, the tumor boron concentration should be about 29 and 15 μg/g at 2d and 5d, respectively, which are still low. Studies are underway to repeat these experiments."}, "EMT-6 mammary tumors": {"system": "EMT-6 mammary tumors", "test": "Boron concentrations in tissues at the time of irradiation (Example 8)", "type": "in vivo, BALB/c mice", "settings": "≈400 μg/g body weight CuTCPBr, euthanized the day of irradiation", "text": "In this example, female BALB/c mice (Taconic Farms, Germantown, N.Y.) (20-25 g) were used in radiotherapy studies to compare tumor control effects in mice bearing EMT-6 mammary tumors. The EMT-6 leg tumors were formed by mincing freshly removed tumor tissue from mice into fragments no larger than 0.5 mm. The fragments were mixed in a saline solution and implanted subcutaneously (sc) in the legs of mice using an 18-gauge trocar. Tumor fragments were used because in this particular location tumors initiated by cell suspensions tend to spread in a thin subcutaneous layer and invade the subjacent muscle. Using tumor fragments, the tumors are palpable, but thinner on the leg than on the dorsal thorax. In late stage, fragment-initiated tumors can invade muscle tissue but not as frequently as do suspension-initiated tumors.\nAt approximately seven days after tumor implantation, the mice were stratified by tumor volume into six (6) matched experimental groups, which included five groups of twelve (12) mice each and a control group of thirty-three (33). Two groups were treated with ≈400 μg/g body weight CuTCPBr and given two doses of 100 kVp x-irradiation x-rays, two groups were treated with only two doses of 100 kVp x-irradiation, one group received CuTCPBr and were euthanized the day of irradiation. The function of the group which was immediately euthanized was to determine the boron concentration in tissues at the time of irradiation. It was not a control group upon which the effectiveness of treatment was compared. The control group of thirty-three mice was not treated at all.\nTumor to blood boron concentration ratios were about 4:1, which is low due to the high blood values. Such a trend was also observed with CuTCPH at high doses of 400 mg/kg."}, "[2]": {"system": "subcutaneous 9L gliosarcomas", "test": "Boron biodistribution after intravenous infusion in rat 9L gliosarcoma model (Examples 6 and 7)", "type": "in vivo, Fischer 344 rats", "description": "This example used the experimental rat 9L gliosarcoma model and the protocol used to administer porphyrins by intravenous infusion that were reported in J. NeuroOncol, 52, 111-117, 2001. Six (6) male Fischer 344 rats bearing subcutaneous 9L gliosarcomas were infused intravenously with CuTCPBr at a total dose of 220 μg/gbw over 48 hours. Tumor and blood were sampled from each at zero, one, two and three days after the end of infusion and the boron concentrations measured. In this example, the biodistribution of CuTCPBr was compared to CuTCPH. A group of six (6) male Fischer 344 rats bearing subcutaneous 9L gliosarcomas were infused intravenously with CuTCPBr at a total dose of 220 μg/gbw over 48 hours. A second group of four (4) male Fischer 344 rats bearing subcutaneous 9L gliosarcomas were infused intravenously with CuTCPH at a total dose of 195 μg/gbw. over 48 hours. Boron concentrations in tissues from both groups of rats were taken three days after the end of infusion. The results for the CuTCPBr group of rats are listed in column 2 of Table 6 and the results for the CuTCPH group of rats are listed in column 4 of Table 6. To account for the difference in porphyrin dose (195 μg/gbw for CuTCPH versus 220 μg/gbw for CuTCPBr) and the difference in % boron in each porphyrin (31.8% for CuTCPH versus 21.7 for CuTCPBr), the boron concentrations in tissues from rats given CuTCPBr were normalized so that they would be equivalent to the boron concentrations of rats given CuTCPH. This was done by multiplying the boron concentrations in the CuTCPBr group of rats by the CuTCPBr to CuTCPH boron dose ratio of 1.3. The normalized boron concentrations for the CuTCPBr group of rats are listed in column 3 of Table 6."}, "[3]": {"settings": "220 μg/gbw CuTCPBr (47.7 μg B/gbw) iv over 48 hours, 3 days after end of infusion"}, "[4]": {"settings": "CuTCPBr 220 μg/gbw iv infusion over 48 hours, 0 days after end of infusion"}, "[5]": {"settings": "CuTCPBr 220 μg/gbw iv infusion over 48 hours, 1 day after end of infusion"}, "[6]": {"settings": "CuTCPBr 220 μg/gbw iv infusion over 48 hours, 2 days after end of infusion"}, "[7]": {"settings": "CuTCPBr 220 μg/gbw iv infusion over 48 hours, 3 days after end of infusion"}, "[8]": {"settings": "normalized to boron dose 61.8 μg B/gbw (x1.3), 3 days after end of infusion"}}, "data": [{"substance": "copper octabromotetracarboranylphenylporphyrin [CuTCPBr]", "values": [{"measurement": "tissues at necropsy", "setting": "[1]", "value": "all tissues appeared normal"}, {"measurement": "toxic effects, physically or behaviorally", "setting": "[1]; during and after porphyrin administration", "value": "no toxic effects were noted"}, {"measurement": "Boron Concentration, Blood", "setting": "EMT-6 leg tumors; 2 days after last injection", "value": "0.2 ± 0.1", "unit": "µg/g"}, {"measurement": "Boron Concentration, Liver", "setting": "EMT-6 leg tumors; 2 days after last injection", "value": "271 ± 40", "unit": "µg/g"}, {"measurement": "Boron concentration, Cerebrum", "setting": "EMT-6 leg tumors; 2 days after last injection", "value": "0 ± 0.1", "unit": "µg/g"}, {"measurement": "Boron concentration, Ears", "setting": "EMT-6 leg tumors; 2 days after last injection", "value": "1 ± 1", "unit": "µg/g"}, {"measurement": "Boron Concentration, Tumor", "setting": "EMT-6 leg tumors; 2 days after last injection", "value": "24 ± 11", "unit": "µg/g"}, {"measurement": "Boron Concentration, Blood", "setting": "EMT-6 leg tumors; 5 days after last injection", "value": "0.1 ± 0.1", "unit": "µg/g"}, {"measurement": "Boron Concentration, Liver", "setting": "EMT-6 leg tumors; 5 days after last injection", "value": "308 ± 40", "unit": "µg/g"}, {"measurement": "Boron concentration, Cerebrum", "setting": "EMT-6 leg tumors; 5 days after last injection", "value": "0.6 ± 1", "unit": "µg/g"}, {"measurement": "Boron concentration, Ears", "setting": "EMT-6 leg tumors; 5 days after last injection", "value": "0.6 ± 0.7", "unit": "µg/g"}, {"measurement": "Boron Concentration, Tumor", "setting": "EMT-6 leg tumors; 5 days after last injection", "value": "13 ± 6", "unit": "µg/g"}, {"measurement": "Tumor boron concentration normalized to the dose of the first study", "setting": "EMT-6 leg tumors; 2d", "value": "about 29 μg/g"}, {"measurement": "Tumor boron concentration normalized to the dose of the first study", "setting": "EMT-6 leg tumors; 5d", "value": "~15", "unit": "µg/g"}, {"measurement": "Boron Concentration, Blood", "setting": "EMT-6 mammary tumors", "value": "68 (19) μg/g"}, {"measurement": "Boron Concentration, Liver", "setting": "EMT-6 mammary tumors", "value": "725 (72) μg/g"}, {"measurement": "Boron Concentration, Muscle", "setting": "EMT-6 mammary tumors", "value": "12 (3) μg/g"}, {"measurement": "Boron Concentration, Skin", "setting": "EMT-6 mammary tumors", "value": "20 (4.3) μg/g"}, {"measurement": "Boron Concentration, Tumor", "setting": "EMT-6 mammary tumors; leg tumor", "value": "277 (45) μg/g"}, {"measurement": "Boron Concentration, Brain", "setting": "[2]; [3]", "value": "0.4 (0) μg/g"}, {"measurement": "Boron Concentration, Kidney", "setting": "[2]; [3]", "value": "11 (1) μg/g"}, {"measurement": "Boron Concentration, Lacrimal Gland", "setting": "[2]; [3]", "value": "28 (13) μg/g"}, {"measurement": "Boron Concentration, Liver", "setting": "[2]; [3]", "value": "477 (25) μg/g"}, {"measurement": "Boron Concentration, Lung", "setting": "[2]; [3]", "value": "123 (42) μg/g"}, {"measurement": "Boron Concentration, Lymph Nodes", "setting": "[2]; [3]", "value": "202 (32) μg/g"}, {"measurement": "Boron Concentration, Parotid Gland", "setting": "[2]; [3]", "value": "85 (36) μg/g"}, {"measurement": "Boron Concentration, Spinal Cord", "setting": "[2]; [3]", "value": "0.9 (0.4) μg/g"}, {"measurement": "Boron Concentration, Spleen", "setting": "[2]; [3]", "value": "632 (41) μg/g"}, {"measurement": "Boron Concentration, Submaxillary Gland", "setting": "[2]; [3]", "value": "68 (8) μg/g"}, {"measurement": "Boron Concentration, Tongue", "setting": "[2]; [3]", "value": "30 (3) μg/g"}, {"measurement": "Boron concentration, Ears", "setting": "[2]; [3]", "value": "8.4 (1.2) μg/g"}, {"measurement": "Boron Concentration, Tumor", "setting": "[2]; CuTCPBr 220 μg/gbw (47.7 μg B/gbw) iv infusion over 48 hours, 3 days after end of infusion", "value": "52 (19) μg/g"}, {"measurement": "Boron Concentration, Blood", "setting": "[2]; [4]", "value": "360 (30) μg/g"}, {"measurement": "Boron Concentration, Tumor", "setting": "[2]; [4]", "value": "67 (26) μg/g"}, {"measurement": "Tumor to Blood Ratio (boron)", "setting": "[2]; [4]", "value": 0.19}, {"measurement": "Boron Concentration, Blood", "setting": "[2]; [5]", "value": "150 (20) μg/g"}, {"measurement": "Boron Concentration, Tumor", "setting": "[2]; [5]", "value": "64 (17) μg/g"}, {"measurement": "Tumor to Blood Ratio (boron)", "setting": "[2]; [5]", "value": 0.43}, {"measurement": "Boron Concentration, Blood", "setting": "[2]; [6]", "value": "23 (7) μg/g"}, {"measurement": "Boron Concentration, Tumor", "setting": "[2]; [6]", "value": "75 (34) μg/g"}, {"measurement": "Tumor to Blood Ratio (boron)", "setting": "[2]; [6]", "value": 3.3}, {"measurement": "Boron Concentration, Blood", "setting": "[2]; [7]", "value": "1.4 (0.1) μg/g"}, {"measurement": "Tumor to Blood Ratio (boron)", "setting": "[2]; [7]", "value": 38}, {"measurement": "Boron Concentration, Brain, CuTCPBr Normalized", "setting": "[2]; [8]", "value": 0.5, "unit": "µg/g"}, {"measurement": "Boron Concentration, Ears, CuTCPBr Normalized", "setting": "[2]; [8]", "value": 11, "unit": "µg/g"}, {"measurement": "Boron Concentration, Kidney, CuTCPBr Normalized", "setting": "[2]; [8]", "value": 14, "unit": "µg/g"}, {"measurement": "Boron Concentration, Lacrimal Gland, CuTCPBr Normalized", "setting": "[2]; [8]", "value": 37, "unit": "µg/g"}, {"measurement": "Boron Concentration, Liver, CuTCPBr Normalized", "setting": "[2]; [8]", "value": 623, "unit": "µg/g"}, {"measurement": "Boron Concentration, Lung, CuTCPBr Normalized", "setting": "[2]; [8]", "value": 161, "unit": "µg/g"}, {"measurement": "Boron Concentration, Lymph Nodes, CuTCPBr Normalized", "setting": "[2]; [8]", "value": 264, "unit": "µg/g"}, {"measurement": "Boron Concentration, Parotid Gland, CuTCPBr Normalized", "setting": "[2]; [8]", "value": 111, "unit": "µg/g"}, {"measurement": "Boron Concentration, Spinal Cord, CuTCPBr Normalized", "setting": "[2]; [8]", "value": 1.2, "unit": "µg/g"}, {"measurement": "Boron Concentration, Spleen, CuTCPBr Normalized", "setting": "[2]; [8]", "value": 825, "unit": "µg/g"}, {"measurement": "Boron Concentration, Submaxillary Gland, CuTCPBr Normalized", "setting": "[2]; [8]", "value": 89, "unit": "µg/g"}, {"measurement": "Boron Concentration, Tongue, CuTCPBr Normalized", "setting": "[2]; [8]", "value": 39, "unit": "µg/g"}, {"measurement": "Boron Concentration, Tumor, CuTCPBr Normalized", "setting": "[2]; [8]", "value": 68, "unit": "µg/g"}, {"measurement": "Toxicity", "setting": "[2]; rats, 220 μg/gbw CuTCPBr or 195 μg/gbw CuTCPH iv over 48 hours", "value": "does not appear to be a major problem"}]}]}
